Measurements reported in patent US20180296564A1, “METHOD FOR PREVENTING AND/OR TREATING CHRONIC TRAUMATIC ENCEPHALOPATHY - III” (Eustralis Pharmaceuticals Limited (trading as Pressura …, priority 2013, published 2018).

Tested on: tau phosphorylation
Assay: Tau phosphorylation after concussive injury in the rat (immunohistology)
Type: in vivo
Details: rat concussion model; 3 mg/kg intravenously at 30 min after induction of injury; assessed 3 days after the concussive event
Description: Note that concussive injury in the rat causes extensive tau phosphorylation (B) by 3 days after the concussive event compared to non-injured animals (A). […] Having established that hyperphosphorylated tau accumulates perivascularly following concussive injury, we used an animal model of concussion to investigate whether concussion causes perivascular release of substance P. We developed a rodent model of concussion to replicate the concussive event (Donkin et al., 2004, 7th International Neurotrauma Symposium, pp 75-78, Medimond Publishers, Bologna, Italy) and subsequently determined whether substance P was released after such an event. There was a clear increase in brain perivascular substance P immunoreactivity after the concussive event (FIG. 2). […] Having shown that mechanical injury causes release of substance P after concussive injury, we then investigated whether Emend® reduces tau hyperphosphorlation after concussive injury. […] Note that concussive injury in the rat causes extensive tau phosphorylation (B) by 3 days after the concussive event compared to non-injured animals (A). […] Thus, administration of Emend® prevents tau hyperphosphorylation and thus prevents the development of CTE.

## C[C@@H](O[C@H]1OCCN(Cc2nc(=O)[nH][nH]2)[C@H]1c1ccc(F)cc1)c1cc(C(F)(F)F)cc(C(F)(F)F)c1 [Emend®, 5-([(2R,3S)-2-((R)-1-[3,5-bis(trifluoromethyl)phenyl]ethoxy)-3-(4-fluorophenyl)morpholino]methyl)-1H-1,2,4-triazol-3(2H)-one]
  effect on tau phosphorylation after concussive injury: almost complete inhibition of tau phosphorylation
